Assay results as given in US6420377B1, “Covalent conjugates of topoisomerase I and topoisomerase II inhibitors” (priority 1997, dated 2002).
Read-outs that look alike come from different tables or passages of the source.

Tests used:
KB-7d [1] = details: relative to KB; cited from earlier work
KB cells [2] = test: Cellular protein-DNA complex formation (potassium-SDS precipitation); format: cell-based; details: one hour
Protocol: Stimulation of intracellular protein associated DNA breaks was measured using a standard assay method described in Y. Kashiwada et al., J. Pharm. Sci. 82:487 (1993). Briefly, KB cells were labeled overnight with tritiated thymidine (0.5 μCi/mL), chased for two hours and then treated in triplicate with test compounds at various concentrations. After one hour, samples were processed and protein-DNA complexes were measured as potassium-SDS precipitable radioactivity.

KB cells [3] = test: Gel lysis assay for genomic DNA breaks; format: cell-based; details: for reversal of genomic DNA fragmentation upon drug removal: additional hour in fresh media
Protocol: One million KB cells in 25cm^2 flasks were treated for three hours with test compound, the medium was discarded then cells were scraped into ice-cold PBS and harvested by centrifugation. Washed cell pellets were resuspended in eighty microliters of a 37° C. gel solution [1% (w/v) low-melting point agarose in PBS], and were cast in a mold and refrigerated to form 6×7×2 mm agarose plugs. Plugs of cells were incubated in lysis-digestion buffer (0.4M EDTA, 0.01 Tris (HCl, pH 8.0), 1% (w/v) N-lauryl-sarcosine and 100 μg/mL proteinase K) at 37° overnight or 50° for one hour. The treated plugs were equilibrated in TBE buffer and placed against a gel comb in a horizontal gel casting tray (BRL Inc., H4 system format). A 55° gel solution containing 0.8% (w/v) agarose in TBE was poured and allowed to gel. Electrophoresis was at 3.5 v/cm (measured between electrodes) for 16 hours at 4° without buffer re-circulation. The gel was stained with 1 μg/mL ethidium bromide in water, treated overnight at 25° C. with RN'ase (1 μg/mL), and then photographed under UV illumination. For the reversibility studies, treated cells were washed with PBS and incubated with fresh media for an additional hour before harvesting for plug preparation and gel analysis.

[4] = system: calf thymus DNA topoisomerase II; test: In vitro topoisomerase-DNA cleavage assay, topoisomerase II; format: biochemical; details: for cleavable complex formation with topoisomerase II: FIG. 1A; for topoisomerase II cleavable complex activity relative to unconjugated components: S-1 vs 3, 4a, S-2 vs 3, 4b
Excerpt: (§1) Calf thymus DNA topoisomerases were purchased from TopoGen Inc., Columbus, Ohio. Tritium-labeled thymidine (60-90 ci/mmol) for labeling cellular DNA to measure protein-DNA complexes and αP^32-labeled deoxycytidine triphosphate (>3000 ci/mmol) were obtained from ICN Biochemicals Inc., Irvine, Calif. The latter radiochemical was used with a T4-DNA polymerase polymerase-labeling system from BRL Inc., Gaithersburg, Md., to prepare P^32-plasmid DNA for in vitro cleavage assays. Tissue culture reagents were purchased from Sigma Chemical Co., St. Louis, Mo., and Gibco-BRL Inc. All other chemicals were reagent grade.
(§2) The detailed method used to measure stimulation of cleavable complexes in vitro is described in K. Bastow et al., Planta Med. 59:195 (1993).. Briefly, incubated cleavage reactions containing one nanogram of P^32 end-labeled linearized PBR322 DNA, one unit of enzyme and test compound were divided equally for analysis. One portion was prepared for gel electrophoresis with subsequent autoradiography and protein-DNA complexes in the remaining sample were analyzed using the potassium-SDS precipitation method and scintillation spectrometry.

[5] = system: KB oral carcinoma cell line; details: KB growth inhibition; cited from earlier work
KB-7d [6] = test: Cell growth inhibition, etoposide-resistant KB-7d cells; format: cell-based; details: for IC50: KB7D, read-out: Cell Growth Inhibition IC50
Protocol: (§3) The KB oral carcinoma cell line was provided by M. Fisher (Pharmacology, UNC- Chapel Hill). The isolation and properties of the etoposide-resistant sub-clone, KB-7d, and the camptothecin-resistant line, KB-CPT100, were reported in P. Ferguson et al., Cancer Res. 48:5956 (1988) and D. Beidler et al., Cancer Res. 56:345 (1996), and are discussed briefly hereinafter. The vincristine-resistant sub-clone, KB-VIN20c was isolated by selection in 20 nM vincristine and over-expresses the P-glycoprotein multidrug-resistant drug-efflux protein (unpublished results).
(§4) All cell types were propagated in RPMI-1640 medium supplemented with 5% (v/v) fetal calf serum and 100 μg/mL kanamycin at 37° in a humidified atmosphere of 5% CO2 and 95% air. Over the course of the experiments, doubling times of cells were 24±4 hours.
(§5) Fifty thousand cells were plated in 25 cm^2 flasks (Falcon, N.J., USA) and incubated overnight. The medium was supplemented with test compounds at various concentrations and cultures were incubated for 48-51 hours (for about two cell doublings) before cells were trypsinized and then counted using a hemacytometer. The number of treated cells which excluded 0.5% (v/v) trypan blue were expressed as a percentage of the growth measured in control cultures. Compounds were evaluated in at least two independent experiments and the combined results were analyzed as scatter plots with dose-responses being computer fitted by linear regression at the 95% confidence level using Graphpad Software., San Diego, Calif. The IC50 concentrations which inhibited cell growth by fifty percent relative to control were interpolated from graphed results.

KB = test: Cytotoxicity measured as reduced plating efficiency, KB cells; format: cell-based; details: Homo sapiens, 3 h, read-out: Cytotoxicity Measured as Reduced Plating Efficiency IC50
Protocol: (§6) LC50 concentrations were determined by treating cells for three hours with different concentrations of compounds then replating cells to measure colony formation and plating efficiency as the percent of total cells forming colonies. Compounds were evaluated in three independent experiments. The plating efficiences of untreated cells varied between experiments with values ranging from 14-31% for KB, 31-56% for KB-7d, 16-38% for KB-VIN20c and 21-36% for KB-CPT100. A concentration of compound that reduced plating efficiency by fifty percent relative to control, the LC50, was determined graphically as stated in the preceding section.

KB-VIN20c [7] = test: Cell growth inhibition, vincristine-resistant KB-VIN20c cells; format: cell-based; details: for IC50: read-out: Cell Growth Inhibition IC50
Protocol: as §3, §4, §5

KB-CPT100 [8] = test: Cell growth inhibition, camptothecin-resistant KB-CPT100 cells; format: cell-based; details: for cross-resistance of KB-CPT100 cells, growth inhibition: relative to KB
Protocol: as §3, §4, §5

[9] = target: T1, calf thymus DNA topoisomerase I (Bos taurus, UniProt F1MN93); test: In vitro topoisomerase-DNA cleavage assay, topoisomerase I; format: biochemical; details: for stimulation of topoisomerase I cleavage activity, dose behaviour: higher test concentrations; for cleavable complex formation with topoisomerase I / topoisomerase I cleavable complex activity relative to unconjugated components: ten micromolar; for cleavable complex formation with topoisomerase I: FIG. 1A; for topoisomerase I cleavable complex activity relative to unconjugated components: S-1 vs 3, 4a, S-2 vs 3, 4b
T1 construct: Calf thymus DNA topoisomerases were purchased from TopoGen Inc., Columbus, Ohio; purchased TopoGen Inc., Columbus, Ohio; host or cells: calf thymus (tissue-derived enzyme)
T1 sequence (F1MN93 1-767): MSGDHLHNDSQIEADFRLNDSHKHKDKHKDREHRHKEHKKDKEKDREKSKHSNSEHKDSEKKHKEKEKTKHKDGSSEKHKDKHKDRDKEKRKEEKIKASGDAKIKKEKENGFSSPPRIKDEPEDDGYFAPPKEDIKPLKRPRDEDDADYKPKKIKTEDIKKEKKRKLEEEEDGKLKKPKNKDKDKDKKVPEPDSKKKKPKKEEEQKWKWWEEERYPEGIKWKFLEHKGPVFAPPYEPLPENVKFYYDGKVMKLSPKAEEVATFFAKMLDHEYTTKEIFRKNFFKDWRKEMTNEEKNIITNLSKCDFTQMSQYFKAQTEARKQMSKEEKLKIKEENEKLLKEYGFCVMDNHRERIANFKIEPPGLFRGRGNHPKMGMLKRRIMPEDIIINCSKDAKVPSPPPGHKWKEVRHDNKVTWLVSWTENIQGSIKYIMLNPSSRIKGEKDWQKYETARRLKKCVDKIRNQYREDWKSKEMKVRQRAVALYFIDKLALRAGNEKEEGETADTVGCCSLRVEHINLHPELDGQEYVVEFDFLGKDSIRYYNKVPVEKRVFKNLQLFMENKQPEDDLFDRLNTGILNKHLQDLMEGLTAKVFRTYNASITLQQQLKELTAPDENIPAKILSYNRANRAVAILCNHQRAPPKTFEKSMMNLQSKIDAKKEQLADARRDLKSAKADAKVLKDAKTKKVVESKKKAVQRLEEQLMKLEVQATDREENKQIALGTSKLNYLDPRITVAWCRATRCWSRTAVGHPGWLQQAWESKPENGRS
Excerpt: as §1, §2

[10] = system: KB oral carcinoma cell line; test: Cell growth inhibition, KB cells; format: cell-based; details: for IC50: Homo sapiens, KB
Protocol: as §3, §4, §5

KB-7d [11] = test: Cytotoxicity measured as reduced plating efficiency, KB-7d cells; format: cell-based; details: for IC50: KB7D, 3 h, read-out: Cytotoxicity Measured as Reduced Plating Efficiency IC50
Protocol: as §6

KB-VIN20c [12] = test: Cytotoxicity measured as reduced plating efficiency, KB-VIN20c cells; format: cell-based; details: 3 h, read-out: Cytotoxicity Measured as Reduced Plating Efficiency IC50
Protocol: as §6

KB-CPT100 [13] = test: Cytotoxicity measured as reduced plating efficiency, KB-CPT100 cells; format: cell-based; details: KBCPT100, 3 h, read-out: Cytotoxicity Measured as Reduced Plating Efficiency IC50
Protocol: as §6

KB-CPT100 [14] = details: relative to KB; cited from earlier work
[15] = fifty-times the IC50 for KB growth inhibition (etoposide eight, 4b four, 3 0.4, S-2 0.8 micromolar), three hours
[16] = twenty-fold higher concentration (3 at sixteen micromolar), three hours
[17] = twenty-fold higher concentration

Row | Structure (SMILES) | genomic DNA fragmentation (KB cells [3]; [15]) | stimulation of in vitro topoisomerase II cleavable-complexes, dose behaviour [4] | stimulation of topoisomerase II-induced DNA cleavage over enzyme control ([4]; fifty micromolar) | stimulation of topoisomerase II-induced DNA cleavage over enzyme control ([4]; one micromolar) | stimulation of topoisomerase II-induced DNA cleavage over enzyme control ([4]; ten micromolar) [fold] | IC50 [5] [nM] | IC50 (KB) [nM] | cross-resistance of KB-CPT100 cells, growth inhibition (KB-CPT100 [8]) | stimulation of topoisomerase I cleavage activity, dose behaviour [9] | cleavable complex formation with topoisomerase I [9] | topoisomerase I cleavable complex activity relative to unconjugated components [9] | IC50 (KB-7d [11]) [nM] | IC50 (KB-VIN20c [12]) [nM] | genomic DNA fragmentation (KB cells [3]; [16]) | reversal of genomic DNA fragmentation upon drug removal (KB cells [3]; [17]) | cleavable complex formation with topoisomerase II ([4]; ten micromolar) | topoisomerase II cleavable complex activity relative to unconjugated components ([4]; ten micromolar) | also measured
1 | COc1cc([C@@H]2c3cc4c(cc3[C@@H](O[C@@H]3O[C@@H]5CO[C@@H](C)O[C@H]5[C@H](O)[C@H]3O)[C@H]3COC(=O)[C@H]23)OCO4)cc(OC)c1O [Compound C-1, etoposide, reference compound] | High molecular weight DNA fragments were detected | act saturably | 12 fold | 1.5 fold | 3 | 160 ± 40 |  |  |  |  |  |  |  |  |  |  |  | resistance of KB-7d cells (KB-7d [1]): 145 fold; intracellular protein-DNA complex formation (KB cells [2]; one micromolar and lower): no measurable response; reversal of genomic DNA fragmentation upon drug removal (KB cells [3]; fifty-times the IC50): integrity of the DNA was restored
2 | CC[C@@]1(O)C(=O)OCc2c1cc1n(c2=O)Cc2c-1nc1ccccc1c2/C=N/c1ccccc1N[C@@H]1c2cc3c(cc2[C@@H](c2cc(OC)c(O)c(OC)c2)[C@H]2C(=O)OC[C@@H]21)OCO3 [Compound S-2] |  | dose-inhibitory | only marginal stimulation | only marginal stimulation | ~4 |  | 4000 | only six-fold cross-resistant | not inhibited at higher test concentrations | induced cleavable complexes | reduced about two-fold | > 15000 | 4600 | high molecular mass genomic fragments were detected | only partially restored | induced cleavable complexes | reduced about two-fold | IC50 (KB-7d [6]): 15 nM; IC50 (KB-VIN20c [7]): 27 nM; IC50 (KB-CPT100 [8]; KBCPT100, read-out: Cell Growth Inhibition IC50): 85 nM; activity at inhibiting KB cell growth relative to C-1 [10]: about ten-fold more active; IC50 ([10]; read-out: Cell Growth Inhibition IC50): 14 nM; cross-resistance of KB-7d cells to cytotoxic action (KB-7d [11]): appeared cross-resistant; intracellular protein-DNA complex formation, dose behaviour (KB cells [2]; high concentration (7.5-60 micromolar)): not dose-inhibitory at high concentration; genomic DNA fragmentation (KB cells [3]): marginal DNA fragmentation; IC50 (KB-CPT100 [13]): 2000 nM
3 | CC[C@@]1(O)C(=O)OCc2c1cc1n(c2=O)Cc2c-1nc1ccccc1c2/C=N\c1ccc(N[C@@H]2c3cc4c(cc3[C@@H](c3cc(OC)c(O)c(OC)c3)[C@H]3C(=O)OC[C@@H]32)OCO4)cc1 [Compound S-1] |  |  |  |  |  |  |  |  |  | induced cleavable complexes | reduced about two-fold |  |  |  |  | induced cleavable complexes | reduced about two-fold | melting point: > 300 °C (dec.)
4 | CC[C@@]1(O)C(=O)OCc2c1cc1n(c2=O)Cc2cc3ccccc3nc2-1 [Compound C-2, camptothecin] |  |  |  |  |  | 9.8 ± 3.2 |  |  |  |  |  |  |  |  |  |  |  | resistance of KB-CPT100 cells to growth-inhibitory effect (KB-CPT100 [14]): 32 fold
5 | CC[C@@]1(O)C(=O)OCc2c1cc1n(c2=O)Cc2c-1nc1ccccc1c2C=O [Compound 3, 7-formyl camptothecin, reference compound] | inactive |  |  |  |  |  | 10000 | about 58 fold | not inhibited at higher test concentrations |  |  | > 16000 | 12000 | marginal fragmentation | not affected by reversing treatment |  |  | IC50 (KB-7d [6]; KB-7d, 48-51 hours, two numbers in brackets after the value): 9 nM; cross-resistance of KB-7d cells, growth inhibition (KB-7d [6]; relative to KB): equally active; IC50 (KB-VIN20c [7]; XB-VIN20c (so in the source), 48-51 hours, two numbers in brackets after the value): 18 nM; cross-resistance of KB-VIN20c cells, growth inhibition (KB-VIN20c [7]; relative to KB): no more than 2 fold; IC50 (KB-CPT100 [8]; KBCPT100, KB-CPT100, 48-51 hours, two numbers in brackets after the value, read-out: Cell Growth Inhibition IC50): 575 nM; IC50 ([10]; read-out: estimated IC50, KB cell growth): 7 nM; IC50 ([10]; 48-51 hours, two numbers in brackets after the value, read-out: Cell Growth Inhibition IC50): 7 nM
